Results from patent US12091395B2, “Griseofulvin compound” (Daiichi Sankyo Company, Limited, priority 2016, dated 2024).

tested on: TNF-α; assay: Determination of TNF-α inhibition rate (LPS-induced inflammation in mice, serum TNF-α); assay type: in vivo; conditions: Mus musculus, 1 h, oral 100 mg/kg in 0.5% methyl cellulose, LPS 0.4 mg/kg i.p. one hour later, serum TNF-α one hour after LPS
Protocol: A test substance was suspended in a 0.5%. (w/v) methyl cellulose and orally administered to mice at a dose of 100 mg/kg. One hour later, a lipopolysaccharide (LPS, Sigma-Aldrich, L2630 (trade name)) (0.4 mg/kg) was intraperitoneally administered to induce inflammation. One hour after administration of LPS, blood was taken from the vena cava under anesthesia with isoflurane, placed in a tube containing a serum separating agent, allowed to stand still at room temperature for 20-30 minutes and centrifuged at 4° C. at 12,000 rpm for 5 minutes to obtain the serum. Thereafter, the amount of the TNF-α in the serum was measured by using Mouse TNF-α Elisa Kit (Invitrogen, KMC3011C (trade name)) or Mouse TNF-α Immunoassay Kit (PerkinElmer, AL505 (trade name)) in accordance with the protocol of the kit. The serum was diluted 10 times with the dilution solution contained in the kit and put in use.
TNF-α inhibition rate (%) of the test substance was calculated in accordance with the following expression. TNF-α inhibition rate (%)=[(TNF-α amount of control group)−(TNF-α amount of test substance administration group)]×100/(TNF-α amount of control group)

SMILES	inhibition in vivo at 100 mg/kg [%]
COC1=CC(=O)C[C@@H](C)[C@]12Oc1c(Cl)c(OC)cc(OC)c1C2=O [Griseofulvin]	19
COC1=CC(=O)C[C@@H](C)[C@]12Oc1c(Cl)c(-c3nnc([C@H](C)O)o3)cc(OC)c1C2=O [Example 9, (2S,5′R)-7-Chloro-6-[5-[(1S)-1-hydroxyethyl]-1,3,4-oxadiazol-2-yl]-3′,4-dimethoxy-5′-methyl-spiro[benzofuran-2,4′-cyclohex-2-ene]-1′,3-dione]	65
COC1=CC(=O)C[C@@H](C)[C@]12Oc1c(Cl)c(-c3nc(C)no3)cc(OC)c1C2=O [Example 6, (2S,5′R)-7-Chloro-3′,4-dimethoxy-5′-methyl-6-(3-methyl-1,2,4-oxadiazol-5-yl)spiro[benzofuran-2,4′-cyclohex-2-ene]-1′,3-dione]	55
COC1=CC(=O)C[C@@H](C)[C@]12Oc1c(Cl)c(-c3nc(C(C)O)no3)cc(OC)c1C2=O (stereo partly drawn) [Example 13, (2S,5′R)-7-Chloro-6-[3-(l-hydroxyethyl)-1,2,4-oxadiazol-5-yl]-3′,4-dimethoxy-5′-methyl-spiro[benzofuran-2,4′-cyclohex-2-ene]-1′,3-dione]	82
CCn1ccc(-c2cc(OC)c3c(c2Cl)O[C@]2(C3=O)C(OC)=CC(=O)C[C@H]2C)n1 [Example 4, (2S,5′R)-7-Chloro-6-(1-ethylpyrazol-3-yl)-3′,4-dimethoxy-5′-methyl-spiro[benzofuran-2,4′-cyclohex-2-ene]-1′,3-dione]	73
CCOc1cc(-c2nnc(C(C)(C)O)o2)c(Cl)c2c1C(=O)[C@@]1(O2)C(OC)=CC(=O)C[C@H]1C [Example 11, (2S,5′R)-7-Chloro-4-ethoxy-6-[5-(1-hydroxy-1-methyl-ethyl)-1,3,4-oxadiazol-2-yl]-3′-methoxy-5′-methyl-spiro[benzofuran-2,4′-cyclohex-2-ene]-1′,3-dione]	61
COC1=CC(=O)C[C@@H](C)[C@]12Oc1c(Cl)c(-c3nc(C)no3)cc(OCCO)c1C2=O [Example 15, (2S,5′R)-7-Chloro-4-(2-hydroxyethoxy)-3′-methoxy-5′-methyl-6-(3-methyl-1,2,4-oxadiazol-5-yl)spiro[benzofuran-2,4′-cyclohex-2-ene]-1′,3-dione]	55
COCCOc1cc(OC)c2c(c1Cl)O[C@]1(C2=O)C(OC)=CC(=O)C[C@H]1C [Example 2, (2S,5′R)-7-Chloro-3′,4-dimethoxy-6-(2-methoxyethoxy)-5′-methyl-spiro[benzofuran-2,4′-cyclohex-2-ene]-1′,3-dione]	71
COC1=CC(=O)C[C@@H](C)[C@]12Oc1c(Cl)c(-c3ccn(C)n3)cc(OC)c1C2=O [Example 3, (2S,5′R)-7-Chloro-3′,4-dimethoxy-5′-methyl-6-(1-methylpyrazol-3-yl)spiro[benzofuran-2,4′-cyclohex-2-ene]-1′,3-dione]	65
COC1=CC(=O)C[C@@H](C)[C@]12Oc1c(Cl)c(-c3noc(C)n3)cc(OCCO)c1C2=O [Example 16, (2S,5′R)-7-Chloro-4-(2-hydroxyethoxy)-3′-methoxy-5′-methyl-6-(5-methyl-1,2,4-oxadiazol-3-yl)spiro[benzofuran-2,4′-cyclohex-2-ene]-1′,3-dione]	62
COC1=CC(=O)C[C@@H](C)[C@]12Oc1c(Cl)c(OCCO)cc(OC)c1C2=O [Example 1, (2S,5′R)-7-Chloro-6-(2-hydroxyethoxy)-3′,4-dimethoxy-5′-methyl-spiro[benzofuran-2,4′-cyclohex-2-ene]-1′,3-dione]	62
CCOc1cc(-c2nnc([C@H](C)O)o2)c(Cl)c2c1C(=O)[C@@]1(O2)C(OC)=CC(=O)C[C@H]1C [Example 12, (2S,5′R)-7-Chloro-4-ethoxy-6-[5-[(1S)-1-hydroxyethyl]-1,3,4-oxadiazol-2-yl]-3′-methoxy-5′-methyl-spiro[benzofuran-2,4′-cyclohex-2-ene]-1′,3-dione]	61
COC1=CC(=O)C[C@@H](C)[C@]12Oc1c(Cl)c(-c3nnc([C@@H](C)O)o3)cc(OC)c1C2=O [Example 10, (2S,5′R)-7-Chloro-6-[5-[(1R)-1-hydroxyethyl]-1,3,4-oxadiazol-2-yl]-3′,4-dimethoxy-5′-methyl-spiro[benzofuran-2,4′-cyclohex-2-ene]-1′,3-dione]	58
COC1=CC(=O)C[C@@H](C)[C@]12Oc1c(Cl)c(-c3noc(C)n3)cc(OC)c1C2=O [Example 7, (2S,5′R)-7-Chloro-3′,4-dimethoxy-5′-methyl-6-(5-methyl-1,2,4-oxadiazol-3-yl)spiro[benzofuran-2,4′-cyclohex-2-ene]-1′,3-dione]	65
COC1=CC(=O)C[C@@H](C)[C@]12Oc1c(Cl)c(-c3nnc(C(C)(C)O)o3)cc(OC)c1C2=O [Example 8, (2S,5′R)-7-Chloro-6-[5-(1-hydroxy-1-methyl-ethyl)-1,3,4-oxadiazol-2-yl]-3′,4-dimethoxy-5′-methyl-spiro[benzofuran-2,4′-cyclohex-2-ene]-1′,3-dione]	38
COC1=CC(=O)C[C@@H](C)[C@]12Oc1c(Cl)c(-c3nnc(C)o3)cc(OC)c1C2=O [Example 5, (2S,5′R)-7-Chloro-3′,4-dimethoxy-5′-methyl-6-(5-methyl-1,3,4-oxadiazol-2-yl)spiro[benzofuran-2,4′-cyclohex-2-ene]-1′,3-dione]	70
COC1=CC(=O)C[C@@H](C)[C@]12Oc1c(Cl)c(-c3nnc(C)o3)cc(OCCO)c1C2=O [Example 14, (2S,5′R)-7-Chloro-4-(2-hydroxyethoxy)-3′-methoxy-5′-methyl-6-(5-methyl-1,3,4-oxadiazol-2-yl)spiro[benzofuran-2,4′-cyclohex-2-ene]-1′,3-dione]	24
